# Literature values as cited in US20040076682A1, “Novel ophthalmic compositions” (priority 2001, published 2004).
# Test system: Streptococcus sp
# Details: Streptococcus sp clinical isolate of ocular infections
compound,measurement,value
CCn1cc(C(=O)O)c(=O)c2cc(F)c(N3CCNCC3)cc21 [norfloxacin],MIC80,12.5 mg/L
